Laboratory results as given in patent publication US20250026746A1, “ENHANCERS OF PARTICULATE GUANYLYL CYCLASE RECEPTOR A” (Mayo Foundation for Medical Education and Research, priority 2021, published 2025).

Tests used:
human GC-A = molecular target: T1, human GC-A (Homo sapiens, UniProt P16066); experiment: EC50 and Emax cGMP determination, HTRF, human GC-A overexpressing HEK293 cells; assay type: cell-based; conditions: HEK293 GC-A cells
T1 construct: host or cells: HEK293
T1 sequence (P16066 33-1061): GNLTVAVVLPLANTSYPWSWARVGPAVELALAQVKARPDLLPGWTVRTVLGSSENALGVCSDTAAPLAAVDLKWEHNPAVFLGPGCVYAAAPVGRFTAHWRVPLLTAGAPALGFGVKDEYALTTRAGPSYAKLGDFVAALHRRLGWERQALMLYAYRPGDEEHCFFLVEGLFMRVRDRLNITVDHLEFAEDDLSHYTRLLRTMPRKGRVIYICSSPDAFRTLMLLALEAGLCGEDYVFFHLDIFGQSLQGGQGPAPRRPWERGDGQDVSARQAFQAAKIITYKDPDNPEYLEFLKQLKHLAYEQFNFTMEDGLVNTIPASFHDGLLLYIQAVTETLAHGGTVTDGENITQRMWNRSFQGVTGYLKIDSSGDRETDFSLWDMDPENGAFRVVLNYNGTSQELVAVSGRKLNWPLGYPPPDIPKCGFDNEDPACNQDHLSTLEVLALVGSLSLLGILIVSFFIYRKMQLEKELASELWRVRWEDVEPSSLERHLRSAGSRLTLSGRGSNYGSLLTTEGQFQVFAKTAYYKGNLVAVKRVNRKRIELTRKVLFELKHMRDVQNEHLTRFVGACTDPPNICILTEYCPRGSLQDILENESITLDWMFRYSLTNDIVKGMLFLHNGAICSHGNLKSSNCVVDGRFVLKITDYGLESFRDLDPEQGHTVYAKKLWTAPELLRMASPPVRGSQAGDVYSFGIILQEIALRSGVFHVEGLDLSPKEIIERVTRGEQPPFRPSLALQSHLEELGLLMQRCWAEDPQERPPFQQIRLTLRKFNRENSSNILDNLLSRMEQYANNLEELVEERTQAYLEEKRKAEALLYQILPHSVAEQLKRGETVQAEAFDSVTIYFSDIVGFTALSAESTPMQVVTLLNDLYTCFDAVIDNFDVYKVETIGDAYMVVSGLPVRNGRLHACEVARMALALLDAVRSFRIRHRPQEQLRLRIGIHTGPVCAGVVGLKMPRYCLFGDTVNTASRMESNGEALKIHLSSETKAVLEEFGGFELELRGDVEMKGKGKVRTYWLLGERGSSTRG
T1 sequence (P01160 124-151 partner limits assumed): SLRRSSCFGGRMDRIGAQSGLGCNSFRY
Description: Test compounds were evaluated for potentiation of cGMP in human GC-A overexpressing HEK293 cells (Cardiorenal Research Laboratory, Mayo Clinic). Test compounds at 10 mM DMSO stock concentration were dispensed into 384 well small volume white plates using Tecan D300e digital dispenser starting at 5 μM or 40 μM concentration and diluted 2-fold for 10-point concentration response. Wells were backfilled with DMSO such that the final concentration of DMSO in all wells was maintained at 0.3% DMSO. Atrial natriuretic peptide (ANP, Phoenix Pharmaceuticals) ANP was prepared as working stock aliquots at 5 μM in phosphate-buffered solution (PBS) with 0.1% bovine serum albumin (BSA) and diluted to […] in buffer plus Tween20 at 0.3% and added to plates to a final concentration equivalent to EC20 ANP in the cGMP assay. GC-A cells in suspension ([…]) in OptiMem media (ThermoFisher 11058-021) supplemented with 2% fetal bovine serum were plated at 1×10^6 cells/mL and assay plates were spun at 1000 rpm for 30 sec and incubated at room temperature for 30 min. GC-A-mediated activation of cGMP production was measured using cGMP CisBio detection homogenous time-resolved florescence (HTRF) competition assay using labeled-cGMP in human GC-A-overexpressing HEK293 cells. 5 μL of d-2 acceptor was dispensed into each well followed by addition of 5 μL of Anti-cGMP Eu-Cryptate antibody donor and plates were spun at 1000 rpm for 30 sec and incubated in the dark at room temperature for 1 hr. HTRF florescence was read on the ClarioStar microplate reader (BMG). A 100% response was determined from wells in the absence of compound and presence of saturating concentration of ANP (10 nM), and 0) % response was determined from wells containing an EC20 concentration of ANP determined for each new lot of ANP. Concentration-response curves for test compounds were analyzed by […] analysis using GraphPad software to determine EC50 and Emax values.

[1] = test system: Primary Human cardiomyocytes; experiment: cGMP levels (ELISA) in human cardiomyocytes; assay type: cell-based; conditions: acetate salt, ANP (10^-10 M); for cGMP generation in HCMs in the presence of ANP: 1 or 10 μM, vs vehicle
Description: Primary Human cardiomyocytes (HCMs: Catalog No. 6200, Lot No. 6288, PromoCell) were maintained and subcultured according to the manufacturer's protocols. Passage 5 was used in the study. Treatment buffer, Compound 3, Compound 1 and Compound 2 acetate salt, ANP, and vehicle were prepared as described above. Briefly, 5×10^5 of cells/well were grown in 6-well plates until 80 to 90% confluency and were then pretreated with vehicle or Compound 3, Compound 1 or Compound 2 at doses of 1 or 10 μM for 5 min at 37° C., then cells were treated with ANP (10^-10 M) for an additional 10 min at 37° C. Afterward, all cells were washed with PBS once and lysed with 0.1 M HCl at room temperature, and intracellular cGMP levels were measured in the lysate using a commercial cGMP ELISA kit (Enzo Life Sciences) with the acetylation method as instructed by the manufacturer.

Row | Compound | potency in potentiating ANP-mediated cGMP generation (comparison between forms/enantiomers) (human GC-A) | cGMP generation in HCMs in the presence of ANP [1] | cGMP generation in HCMs, Compound 1 compared with Compound 2 ([1]; both doses)
1 | CN(C)CCN1CCC[C@H](C(=O)Nc2nc3c(F)cc(F)cc3s2)C1 [Compound 1, (S)-N-(4,6-difluorobenzo[d]thiazol-2-yl)-1-(2-(dimethylamino)ethyl) piperidine-3-carboxamide] | more potent | increased cGMP levels in a dose dependent manner | more potent
2 | CN(C)CCN1CCC[C@@H](C(=O)Nc2nc3c(F)cc(F)cc3s2)C1 [Compound 2, (R)-N-(4,6-difluorobenzo[d]thiazol-2-yl)-1-(2-(dimethylamino)ethyl) piperidine-3-carboxamide] |  | increased cGMP levels in a dose dependent manner | 
